# Values of other authors, collected in publication PMC12284023, “Metabolomic and chemometric profiling of crimson grapes during drying and its impact on antidiabetic activity” (NPJ Science of Food, 2025).
# pIC50: −log10 of the molar value.
# Columns and labels:
# [1] = target: α-glucosidase enzyme; parameters: method as in ref 56 = [56]; 56. Cásedas G Cyanidin-3-O-glucoside inhibits different enzymes involved in central nervous system pathologies and type-2 diabetes South Afr. J. Bot. 2019 120 241 246 Cásedas, G. et al. Cyanidin-3-O-g; conditions: read-out: IC50 against α-glucosidase enzyme
# [2] = system: streptozotocin-induced diabetic mouse; parameters: method as in ref 57 = [57]; 57. Choi K Choi S-I Park MH Han J-S Cyanidin-3-O-glucoside ameliorates postprandial hyperglycemia in diabetic mice J. Life Sci. 2017 27 32 37 Choi, K., Choi, S.-I., Park, M. H. & Han, J.-S. Cyanidin-3; conditions: oral administration of soluble starch with compound, streptozotocin-induced diabetic mouse ref 57
# [3] = target: pancreatic lipase; parameters: method as in PMID 26284613; conditions: in vitro, dose-dependent ref 61
# [4] = system: streptozotocin-induced diabetic rats; parameters: method as in PMID 35932369; conditions: streptozotocin-induced diabetic rats ref 62
# [5] = system: streptozotocin-injected rat; parameters: method as in PMID 32446112; conditions: via suppressing uric acid, plasma glucose, triglyceride, total cholesterol, creatinine, IL-6, TNF-α, MCP-1 levels ref 60
# [6] = system: diabetic mice; parameters: method as in ref 58 = [58]; 58. Ding H Blood glucose-lowering activity of protocatechuic acid is mediated by inhibiting α-glucosidase Food Sci. Hum. Wellness 2024 13 1212 1219 Ding, H. et al. Blood glucose-lowering activity of p; conditions: diabetic mice ref 58
# [7] = system: glycation products such as 5-hydroxymethylfurfural, fructosamine, and advanced glycation end products; parameters: method as in ref 58 = [58]; 58. Ding H Blood glucose-lowering activity of protocatechuic acid is mediated by inhibiting α-glucosidase Food Sci. Hum. Wellness 2024 13 1212 1219 Ding, H. et al. Blood glucose-lowering activity of p; conditions: advanced glycation end products ref 58
structure (smiles),measurement,setting,value
OC[C@H]1O[C@@H](Oc2cc3c(O)cc(O)cc3[o+]c2-c2ccc(O)c(O)c2)[C@H](O)[C@@H](O)[C@@H]1O [Cyanidin-3-O-glucoside],pIC50,[1],3.32
same,levels of postprandial blood glucose,[2],significantly decreased
O=c1ccc2cc(O[C@@H]3O[C@H](CO)[C@@H](O)[C@H](O)[C@H]3O)c(O)cc2o1 [Esculin],IC50 pancreatic lipase inhibition,[3],11.6 ± 0.92 µg/mL
"CC(C)(C)[C@]1(O)CC2OC(=O)CC23C(=O)OC2OC(=O)[C@H](O)C231 (some centres unmarked) [bilobalide, Bilobalide]",anti-retinopathy activity,[4],exhibited anti-retinopathy activity
same,blood glucose levels,[4],decreased blood glucose levels
"CC(C)[C@@H](C)/C=C/[C@@H](C)[C@H]1CC[C@H]2C3=CC=C4C[C@@H](O)CC[C@]4(C)[C@H]3CC[C@]12C [ergosterol, Ergosterol]",diabetic nephropathy,[5],attenuated diabetic nephropathy
O=C(O)c1ccc(O)c(O)c1 [protocatechuic acid],postprandial hypoglycemic activity,[6],acclaimed postprandial hypoglycemic activity
"O=C(O)[C@H]1O[C@@H](Oc2c(-c3ccc(O)c(O)c3)oc3cc(O)cc(O)c3c2=O)[C@H](O)[C@@H](O)[C@@H]1O [quercetin-3-O-glucuronide, Quercetin-3-O-glucuronide]",suppression of glycation products,[7],effectively suppressed
